Source: patent US4528289A, “Corynantheine derivates, processes for their preparation, and their use” (Dr. Willmar Schwabe GmbH & Co., priority 1982, dated 1985)

Assays:
[1] = system: systolic blood pressure of spontaneously hypertonic rats; assay: systolic blood pressure of spontaneously hypertonic rats after oral administration; type: in vivo, rat; conditions: for systolic blood pressure, subsequent value / systolic blood pressure, Δ / systolic blood pressure, Δ %: 2 h
Source text: (§1) The blood pressure-lowering action of the compound THCN according to the present invention and of DHCN was investigated on spontaneously hypertonic rats after oral administration and compared with that of ajmalicine. The method thereby used for the measurement of the systolic blood pressure and of the heart rate on rats is described in Arzneimittel-Forschung, 18, 1285-1287/1968. Before commencement of the experiments, the animals were familiarised with the measurement procedure.
(§2) In a first series of experiments, the systolic blood pressure and the heart rate were investigated 2 hours after the oral administration of the test substances in the form of their hydrochlorides. The substances were suspended in 0.2% agar and administered in a volume of 10 ml./kg. It follows therefrom that all three substances lower the blood pressure in a dosage-dependent manner.

[2] = system: heart rate of spontaneously hypertonic rats; assay: heart rate of spontaneously hypertonic rats after oral administration; type: in vivo, rat; conditions: 2 h
Source text: as §1, §2

[3] = system: systolic blood pressure of spontaneously hypertonic rats; assay: chronological course of blood pressure decrease in spontaneously hypertonic rats; type: in vivo, rat
Source text: as §1
(§3) In a further series of experiments, the chronological course of the blood pressure lowering was investigated. For this purpose, spontaneously hypertonic rats were treated with 10 mg./kg. DHCN and with 5 or 10 mg./kg. THCN per os and in each case 6 or 12 animals of the treated group were measured at definite times after the treatment.

[4] = system: heart rate of spontaneously hypertonic rats; assay: chronological course of heart rate of spontaneously hypertonic rats; type: in vivo, rat; parameters: heart rate at time t: unit not given here
Source text: as §1, §3

CHCl3 arrhythmia = assay: inhibition of CHCl3 arrhythmia on mice, i.p.; type: in vivo
Source text: (§4) The antiarrhythmic effectiveness of DHCN and THCN was investigated on mice and rats.

[5] = acute toxicity, LD50 (Litchfield and Wilcoxon) on mice; type: in vivo; conditions: mouse, in vivo, mice
Source text: (§5) The toxicity of the compounds according to the present invention can be seen from the LD50 values given in the following Table 8 for intravenous, intraperitoneal and oral administration.

mice = assay: as above; type: in vivo; conditions: i.v., i.p. and oral LD50, mice
Source text: as §5

[6] = system: stereotypy brought about by apomorphine; assay: potentiation of apomorphine stereotypy in mice; type: in vivo; conditions: oral, same dosage range (10 to 20 mg/kg)
[7] = system: blood pressure, vessels, central nervous system; assay: general pharmacological action (statement in words); conditions: in vivo
[8] = system: aconitine-induced arrythmias; assay: protection against aconitine-induced arrhythmias in urethane-narcotised rats, i.v.; type: in vivo; conditions: 2 to 5 mg/kg (THCN)
Source text: as §4

[9] = system: heart rate of spontaneously hypertonic rats; assay: chronological course of heart rate of spontaneously hypertonic rats; type: in vivo, rat; parameters: unit not given here; conditions: 20 mg/kg, 4 h.
circulatory disturbances = conditions: known therapy of circulatory disturbances; cited from earlier work
[10] = 4 mg/kg p.o., dihydrocorynantheine
[11] = 8.6 mg/kg p.o., dihydrocorynantheine
[12] = 18 mg/kg p.o., dihydrocorynantheine
[13] = 32 mg/kg p.o., dihydrocorynantheine
[14] = 56 mg/kg p.o., dihydrocorynantheine
[15] = 18 mg/kg p.o., ajmalicine hydrochloride
[16] = 40 mg/kg p.o., ajmalicine hydrochloride
[17] = 56 mg/kg p.o., ajmalicine hydrochloride
[18] = 86 mg/kg p.o., ajmalicine hydrochloride
[19] = 100 mg/kg p.o., ajmalicine hydrochloride

CC[C@H]1CN2CCc3c([nH]c4ccccc34)[C@@H]2C[C@@H]1/C(=C\OC)C(=O)OC [DHCN, dihydrocorynantheine]
systolic blood pressure, subsequent value [1, 10]: 187 ± 6 mm Hg | systolic blood pressure, Δ [1, 10]: -12.7 ± 7 mm Hg | systolic blood pressure, Δ % [1, 10]: -5.8 ± 3.3% | systolic blood pressure, subsequent value [1, 11]: 187 ± 5 mm Hg | systolic blood pressure, Δ [1, 11]: -13 ± 9 mm Hg | systolic blood pressure, Δ % [1, 11]: -6.2 ± 4.0% | systolic blood pressure, subsequent value [1, 12]: 181 ± 3 mm Hg | systolic blood pressure, Δ [1, 12]: -21 ± 5 mm Hg | systolic blood pressure, Δ % [1, 12]: -10.1 ± 2.1% | systolic blood pressure, subsequent value [1, 13]: 175 ± 10 mm Hg | systolic blood pressure, Δ [1, 13]: -29 ± 8 mm Hg | systolic blood pressure, Δ % [1, 13]: -14.6 ± 4.1% | systolic blood pressure, subsequent value [1, 14]: 152 ± 6 mm Hg | systolic blood pressure, Δ [1, 14]: -41 ± 5 mm Hg | systolic blood pressure, Δ % [1, 14]: -21.4 ± 2.7% | heart rate, subsequent value [2, 10]: 485 ± 14 beats/min. | heart rate, Δ [2, 10]: 6 ± 20 beats/min. | heart rate, Δ % [2, 10]: 1.5 ± 4.2% | heart rate, subsequent value [2, 11]: 442 ± 19 beats/min. | heart rate, Δ [2, 11]: -30 ± 18 beats/min. | heart rate, Δ % [2, 11]: -6.2 ± 3.7% | heart rate, subsequent value [2, 12]: 492 ± 12 beats/min. | heart rate, Δ % [2, 12]: -0.6 ± 2.9% | heart rate, subsequent value [2, 13]: 477 ± 5 beats/min. | heart rate, Δ [2, 13]: -16 ± 11 beats/min. | heart rate, Δ % [2, 13]: -3.1 ± 2.2% | heart rate, subsequent value [2, 14]: 502 ± 14 beats/min. | heart rate, Δ [2, 14]: 3 ± 21 beats/min. | heart rate, Δ % [2, 14]: 2.9% | percentage decrease of blood pressure ([3]; 10 mg/kg p.o., 10 min.): 10.6% | percentage decrease of blood pressure ([3]; 10 mg/kg p.o., 20 min.): 14.5% | percentage decrease of blood pressure ([3]; 10 mg/kg p.o., 40 min.): 14.5% | percentage decrease of blood pressure ([3]; 10 mg/kg p.o., 80 min.): 6.1% | percentage decrease of blood pressure ([3]; 10 mg/kg p.o., 2 h.): 3.7% | percentage decrease of blood pressure ([3]; 10 mg/kg p.o., 4 h.): 0.8% | percentage decrease of blood pressure ([3]; 10 mg/kg p.o., 6 h.): 1.4% | blood pressure lowering action compared (in words) ([3]; DHCN 10 mg/kg vs THCN 5 mg/kg p.o.): the same action | time of maximum blood pressure lowering ([3]; DHCN 10 mg/kg, THCN 5 mg/kg p.o.): about 40 minutes | blood pressure after the maximum (in words) ([3]; DHCN 10 mg/kg, THCN 5 mg/kg p.o., after about 40 minutes): the blood pressure again increases to the initial value | heart rate at time t ([4]; 10 mg/kg p.o., 10 min.): 504 | heart rate at time t ([4]; 10 mg/kg p.o., 20 min.): 515 | heart rate at time t ([4]; 10 mg/kg p.o., 40 min.): 500 | heart rate at time t ([4]; 10 mg/kg p.o., 80 min.): 516 | heart rate at time t ([4]; 10 mg/kg p.o., 2 h.): 521 | heart rate at time t ([4]; 10 mg/kg p.o., 4 h.): 517 | heart rate at time t ([4]; 10 mg/kg p.o., 6 h.): 507 | heart rate change (in words) ([4]; DHCN 10 mg/kg, THCN 10 mg/kg, on the border of statistical significance): an increase is to be observed | inhibition in % of CHCl3 arrhythmia (CHCl3 arrhythmia; 10 mg/kg): 0% | inhibition in % of CHCl3 arrhythmia (CHCl3 arrhythmia; 15 mg/kg): 10% | inhibition in % of CHCl3 arrhythmia (CHCl3 arrhythmia; 25 mg/kg): 80% | LD50 ([5]; ip): 98 mg/kg | LD50 ([5]; iv): 13 mg/kg | LD50 ([5]; po): 210 mg/kg | toxicities compared (in words) (mice): almost the same | properties influencing the central nervous system (in words) [6]: no properties influencing the central nervous system | period and strength of activity compared with ajmalicine (in words) [7]: greater than those of the known comparison compound ajmalicine

COC(=O)C1=CO[C@@H](C)[C@H]2CN3CCc4c([nH]c5ccccc45)[C@@H]3C[C@H]12 [ajmalicine, reference compound]
systolic blood pressure, subsequent value [1, 15]: 198 ± 7 mm Hg | systolic blood pressure, Δ [1, 15]: -12 ± 2 mm Hg | systolic blood pressure, Δ % [1, 15]: -5.6 ± 1% | systolic blood pressure, subsequent value [1, 16]: 173 ± 7 mm Hg | systolic blood pressure, Δ [1, 16]: -25 ± 6 mm Hg | systolic blood pressure, Δ % [1, 16]: -12.4 ± 3% | systolic blood pressure, subsequent value [1, 17]: 172 ± 4 mm Hg | systolic blood pressure, Δ [1, 17]: -37 ± 5 mm Hg | systolic blood pressure, Δ % [1, 17]: -17.5 ± 2.1% | maximum blood pressure lowering ([1]; 56 mg/kg, not exceeded with dosages up to 100 mg/kg): about 18% | systolic blood pressure, subsequent value [1, 18]: 165 ± 11 mm Hg | systolic blood pressure, Δ [1, 18]: -36 ± 12 mm Hg | systolic blood pressure, Δ % [1, 18]: -17.7 ± 6.1% | systolic blood pressure, subsequent value [1, 19]: 165 ± 5 mm Hg | systolic blood pressure, Δ [1, 19]: -33 ± 9 mm Hg | systolic blood pressure, Δ % [1, 19]: -16.3 ± 4% | heart rate, subsequent value [2, 15]: 492 ± 27 beats/min. | heart rate, Δ [2, 15]: 30 ± 15 beats/min. | heart rate, Δ % [2, 15]: 7.3 ± 4.3% | heart rate, subsequent value [2, 16]: 513 ± 11 beats/min. | heart rate, Δ [2, 16]: 51 ± 19 beats/min. | heart rate, Δ % [2, 16]: 11.9 ± 4.4% | heart rate, subsequent value [2, 17]: 522 ± 9 beats/min. | heart rate, Δ [2, 17]: 4 beats/min. | heart rate, Δ % [2, 17]: 0.8 ± 1.6% | heart rate, subsequent value [2, 18]: 511 ± 4 beats/min. | heart rate, Δ [2, 18]: 14 ± 2 beats/min. | heart rate, Δ % [2, 18]: 2.9 ± 2.0% | heart rate, subsequent value [2, 19]: 515 ± 9 beats/min. | heart rate, Δ [2, 19]: 26 ± 11 beats/min. | heart rate, Δ % [2, 19]: 5.3% | percentage decrease of blood pressure ([3]; 20 mg/kg, 10 min.): 9.5% | percentage decrease of blood pressure ([3]; 20 mg/kg, 20 min.): 13.0% | percentage decrease of blood pressure ([3]; 20 mg/kg, 40 min.): 14.2% | percentage decrease of blood pressure ([3]; 20 mg/kg, 80 min.): 9.8% | percentage decrease of blood pressure ([3]; 20 mg/kg, 2 h.): 5.8% | percentage decrease of blood pressure ([3]; 20 mg/kg, 4 h.): -1.2% | percentage decrease of blood pressure ([3]; 20 mg/kg, 6 h.): -0.5% | heart rate at time t ([4]; 20 mg/kg, 10 min.): 503 | heart rate at time t ([4]; 20 mg/kg, 20 min.): 505 | heart rate at time t ([4]; 20 mg/kg, 40 min.): 482 | heart rate at time t ([4]; 20 mg/kg, 80 min.): 481 | heart rate at time t ([4]; 20 mg/kg, 2 h.): 472 | heart rate at time t ([4]; 20 mg/kg, 6 h.): 491 | antiarrhythmic effectiveness, chloroform arrythmias (in words) (CHCl3 arrhythmia): no antiarrythmic effectiveness | inhibition in % of CHCl3 arrhythmia (CHCl3 arrhythmia; 25 mg/kg): 0% | antiarrhythmic effectiveness, aconitine-induced arrythmias (in words) [8]: no antiarrythmic effectiveness | LD50 ([5]; ip): 90 mg/kg | LD50 ([5]; iv): 14 mg/kg | LD50 ([5]; po): 360 mg/kg | toxicities compared (in words) (mice): almost the same | properties influencing the central nervous system (in words) [6]: no properties influencing the central nervous system | heart rate at time t [9]: 499 | period of activity (in words) (circulatory disturbances): relatively short period of activity
